Assay results from US4128541A, “Pentapeptide with morphine- like activity” (American Home Products Corporation, priority 1976, dated 1978).
Ends that are not written are not given here.

Key:
rats [1] = test: rat-tail flick method of D'Amour and Smith (analgesia); type: in vivo; conditions: for Mean % Change ± SEM (latency, drug minus baseline) / Mean Latency ± SEM, Drug: injected into the lateral ventricle in Ringer's solution, 100 μg (morphine sulfate 10 μg)
Description: In this test method, which is a standard test for analgesia, a light beam is focused on the tip of the rat's tail, and the pain threshold of the animal is measured by the latency of the rat to remove his tail from the noxious heat source. When tested by the rat-tail flick method by intracerebroventricular injection, according to the procedure of Belluzzi et al., Nature, 260, 625 (1976), the pentapeptide H-Tyr-Gly-Gly-Phe-Ser-OHproduced the effects set forth in Table I.
*All drugs were dissolved in […] of Ringer's solution and injected into
the lateral ventricle through permanently-indwelling cannulae.
*Subcutaneous in saline solution.

guinea pig ileum [2] = conditions: literature, Hughes et al.; cited from earlier work
mouse vas deferens = conditions: literature, Hughes et al.; cited from earlier work
rats [3] = conditions: injection in the brain ventricle in rats; fully reversible by naloxone; Beluzzi et al.; cited from earlier work
[4] = tested on: opiate receptor (3H-naloxone binding) in brain homogenates; conditions: literature; cited from earlier work
opiate receptors = test: binding to opiate receptors in vitro; conditions: effect blocked by naloxone
guinea pig ileum [5] = test: electrically-induced contraction of guinea pig ileum; conditions: effect blocked by naloxone
From the text: Enkephalin, a natural opiate receptor agonist in brain, has been identified [see Hughes et al., Nature, 256, 577(1975)] as a mixture of two pentapeptides: H-Tyr-Gly-Gly-Phe-Met-OH (methionine-enkephalin) and H-Tyr-Gly-Gly-Phe-Leu-OH (leucine-enkephalin).

rats [6] = test: rat-tail flick method of D'Amour and Smith (analgesia); type: in vivo; conditions: intravenous (i.v.) injection, 5 mg/kg
[7] = rat-tail flick, 10 mg/kg subcutaneous in saline solution

| Compound | Mean % Change ± SEM (latency, drug minus baseline) (rats [1]; rat-tail flick) [%] | Mean Latency ± SEM, Drug (rats [1]; rat-tail flick) | block of electrically evoked contractions of guinea pig ileum (in words) (guinea pig ileum [2]) | block of electrically evoked contractions of mouse vas deferens (in words) (mouse vas deferens) | analgesia (in words) (rats [3]) | inhibition of stereospecific receptor binding of 3H-naloxone (in words) [4] | pain threshold (in words) (rats [1]; injection into the lateral brain ventricle, significant difference versus vehicle) | Mean % Change ± SEM (latency) (rats [1]; [7]) [%] | Mean Latency ± SEM, Pentapeptide (rats [1]; [7]) | analgesic effect (in words) (rats [1]; subcutaneous (s.c.) injection, 10 mg/kg in saline) | binding to opiate receptors in vitro (in words) (opiate receptors) | block of electrically-induced contraction of guinea pig ileum (in words) (guinea pig ileum [5]) | analgesic activity (in words) (rats [6]) |
| --- | --- | --- | --- | --- | --- | --- | --- | --- | --- | --- | --- | --- | --- |
| CSCC[C@H](NC(=O)[C@H](Cc1ccccc1)NC(=O)CNC(=O)CNC(=O)[C@@H](N)Cc1ccc(O)cc1)C(=O)O [Methionine-Enkephalin, H-Tyr-Gly-Gly-Phe-Met-OH] | 37.2 | 5.19 | mimic the ability of morphine to block | mimic the ability of morphine to block | profound analgesia | inhibit |  |  |  |  |  |  |  |
| CN1CC[C@]23c4c5ccc(O)c4O[C@H]2[C@@H](O)C=C[C@H]3[C@H]1C5.O=S(=O)(O)O [Morphine Sulfate] | 65.4 | 6.59 |  |  |  |  |  |  |  |  |  |  |  |
| H-Tyr-Gly-Gly-Phe-Leu-OH [leucine-enkephalin] |  |  | mimic the ability of morphine to block | mimic the ability of morphine to block | profound analgesia | inhibit |  |  |  |  |  |  |  |
| YGGFS [H-Tyr-Gly-Gly-Phe-Ser-OH, L-Tyrosyl-Glycyl-Glycyl-L-Phenylalanyl-L-Serine] | 39.25 | 5.77 |  |  |  |  | increase in pain threshold | 26.16 ± 14.36 | 5.15 ± 0.60 | weak analgesic effect | weak binding | blocks | no analgesic activity |
